# Measurements published in US12503451B2, “2-arylthiazole derivative or salt thereof, preparation method therefor, and pharmaceutical composition comprising same” (HEXAPHARMATEC CO., LTD., priority 2020, dated 2025).
# Structures can show the parent of a compound that is named as a salt. Where two headings read alike, the source gives them in different places.
# Assays:
# N2a cells [1] = experiment: Inhibitory activity against neuronal apoptosis by beta amyloid (CCK-8), N2a cells; assay type: cell-based, mouse; conditions: for viability at 5 µM: Mus musculus, N2a, read-out: Cell viability (%) (N2a cells); for Inhibition of cytotoxicity caused by beta amyloid treatment (in words): Table 9: N2a cells 5 μM and neuron cells 500 nM
# Protocol: (§1) The inhibitory activities of the compounds of the present invention against neuronal apoptosis by beta amyloid, known as the major cytotoxic substance in neurodegenerative diseases, were analyzed in N2a cells (ATCC, CCL-131, mouse neuroblastoma cell line) and neuron cells (primary mouse cortical neuron cells) isolated in the same manners as in Test Example 2. The media used in Test Example 3 and Test Example 2 were used as a medium for the N2a cells and as a medium for the neuron cells, respectively. Specifically, N2a cells (3×10^4 cells) and neuron cells (8×10^4 cells), along with the respective media, were added to each well of a 96-well plate and then incubated overnight at 37° C. in a CO2 incubator. The cells were treated with the compound of Example 10 and the compound of Example 29 at the concentrations of 5 μM and 500 nM, respectively, treated with 20 μM of beta amyloid after 30 minutes therefrom, and then incubated at 37° C. in a CO2 incubator for 72 hours. The cells were treated with 10 μL of CCK-8 reagent (Enzo Life Science, ALX-850-039-KI02) and then incubated at 37° C. in a CO2 incubator for 2 hours. Three wells were tested for each group and each absorbance was measured at 450 nm. The absorbance value of the untreated control group was set to 100% cell viability. The cell viability of each group was calculated from the respective absorbance values.
# [2] = test system: primary mouse cortical neuron cells; experiment: Autophagic vesicle formation (CYTO-ID Autophagy Detection Kit); assay type: cell-based; conditions: for Cyto-ID fluorescence value (relative intensity): 5 μM, 24 hours, untreated control = 1; for Autophagic vesicle formation compared to rapamycin (in words): at ½ concentration of rapamycin (5 μM vs 10 μM)
# Protocol: Autophagy lysosomal pathway (ALP) activation by the compounds of the present invention was verified, through measuring the degree of autophagic vesicle formation in neuron cells with the CYTO-ID™ Autophagy Detection Kit (ENZ-51031-K200, Enzo Life Sciences, Inc.). Neuron cells (i.e., primary mouse cortical neuron cells) were isolated from mice using an enzymatic digest method. Specifically, primary mouse cortical neuron cells were isolated by incubating the cortice tissues derived from 16 day embryonic C57BL6 mice, at 37° C. for 30 minutes, with 20 U/ml papain (Worthington Biochemical Corporation, LK003176) and 0.005% DNase I (Worthington Biochemical Corporation, LK003170).
# The primary mouse cortical neuron cells (8×10^4 cells) and a medium (a neural cell culture media containing 2 mM L-glutamine (Gibco, 25030-081), N2 supplement (Gibco, 17502-048), B27 supplement (Gibco, 17504-044), and 50 μg/ml penicillin-streptomycin (Gibco, 15140-122)) were added to each well of a 96-well plate and then incubated overnight at 37° C. in a CO2 incubator. The compound of Example 10 (5 μM), the compound of Example 29 (5 μM), and rapamycin (10 μM) were respectively treated to the cells, which were incubated at 37° C. in a CO2 incubator for 24 hours. After each well was washed with 1×Assay Buffer (Enzo Life Science, ENZ-51031-K200), 0.2 μl of Cyto-ID autophagy dye and 0.1 μl of Hoechst 33342 were treated to the cells, which were incubated at 37° C. in a CO2 incubator for 30 minutes. After each well was washed with 1×Assay Buffer (Enzo Life Science, ENZ-51031-K200), the fluorescence values of Cyto-ID (EX: 480 nm, EM: 530 nm) and Hoechst 33342 (EX: 340 nm, EM: 480 nm) were respectively measured with a fluorometer. Three wells were tested for each group. After normalization was carried out through dividing the Cyto-ID fluorescence value of each well by Hoechst 33342 fluorescence value, each relative intensity was calculated by setting that of the untreated control to 1.
# [3] = test system: primary mouse cortical neuron cells; experiment: Inhibitory activity against neuronal apoptosis by beta amyloid (CCK-8), neuron cells; assay type: cell-based; conditions: Cortical neurone, read-out: Cell viability (%) (Neuron cells)
# Protocol: as §1
# N2a cells [4] = experiment: Inhibitory activities against mitochondrial damage by rotenone (XF Cell Mito Stress Test); assay type: cell-based, mouse; conditions: 5 μM + 10 μM rotenone
# Protocol: The inhibitory activities of the compounds of the present invention against mitochondrial damage by rotenone, known as the major cytotoxic substance in neurodegenerative diseases, were analyzed in N2a cells (ATCC, CCL-131, mouse neuroblastoma cell line). Specifically, N2a cells (3×10^4 cells) and a medium (DMEM (Dulbecco's modified Eagle's medium, Gibco, 11995-065) supplemented with 5% heat-inactivated fetal bovine serum (FBS; Gibco, 16000-044) and 50 μg/ml penicillin-streptomycin (Gibco, 15140-122) were added to each well of a XF24-well culture plate and then incubated overnight at 37° C. in a CO2 incubator. The cells were treated with the compound of Example 10 (5 μM), treated with 10 μM of rotenone after 30 minutes therefrom, and then incubated at 37° C. in a CO2 incubator for 24 hours. After the treatment with a XF Cell Mito Stress Test Kit (Seahorse Bioscience, 103015-100) according to the manufacturer's instructions, the level of mitochondrial respiration was measured, using an XF24 Extracellular Flux Analyzer (Seahorse Bioscience). Four wells were tested for each group; and the basal respiration, the ATP production, the maximal respiration, and the spare respiratory capacity were measured. The levels of each mitochondrial respiration were normalized by the protein quantification value. The basal respiration of the untreated control group was set to 100% and the remaining values are shown. In Table 10, the control group represents a group treated with only 10 μM of rotenone.
# [5] = test system: dimethylnitrosamine (DMN)-induced liver injury male SD rats; experiment: Liver function-improving activities by oral administration in the liver injury model (2); assay type: in vivo, rat
# Protocol: Specifically, 7-week-old male SD rats (Orient Bio, Korea) were accommodated to the laboratory environment at room temperature for 7 days. General symptoms were observed and then only healthy animals were used for the experiment. The rats were divided into 5 groups (n=10 for each group), i.e., the normal control group, the group to which only DMN is administered, and the group to which both the compound of the present invention (the compound of Example 23, 26, or 29) and DMN are administered. DMN was dissolved in purified water and then administered intraperitoneally at the dose of 10 mg/kg for 3 consecutive days per week (3 times per week, for 4 weeks). Blood samples were collected after the completion of the fourth-week liver injury inducement and then the serum ALT (Alanine Transaminase) values and the serum AST (Aspartate Transaminase) values were measured so as to confirm the liver injury thereof. […] Blood samples were collected on Day 0 (1 day after the completion of the fourth-week liver injury inducement) and Day 7, 14, 21 and 28 after the administration of the test materials. The collected blood was injected into a vacutainer tube containing a clot activator and then allowed to stand at room temperature for about 20 minutes so as to coagulate each blood sample. After centrifugation for 10 minutes, the resulting serums were subjected to blood-biochemical tests. In addition, at 24 hours after the last administration, an autopsy for hepatectomy and fixation was performed to prepare the tissue specimens thereof. After preparing the slides with the tissue specimens, hematoxylin and eosin (H&E) staining was performed thereon for microscopic observation of damages to liver tissue and inflammatory cell infiltrations in liver tissues. In addition, Masson's trichrome staining was also performed thereon for microscopic observation of collagen fiber depositions in liver tissues. The results obtained from the measurements were subject to group comparison, through parametric multiple comparisons or non-parametric multiple comparisons, with SPSS. When P<0.05, it was determined to be statistically significant. […] Therefore, it can be confirmed that the compounds of the present invention have excellent treating activity against liver fibrosis. […] From the results of FIG. 4, the degrees of damage to liver tissue and inflammatory cell infiltration in liver tissues were measured. And also, from the results of FIG. 4, the degree of collagen fiber deposition in liver tissues was measured.
# N2a cells [6] = experiment: Autophagy flux by electron microscope imaging; assay type: cell-based, mouse
# Protocol: N2a cells (ATCC, CCL-131, mouse neuroblastoma cell line) (3×10^4 cells) and a medium (DMEM (Dulbecco's modified Eagle's medium, Gibco, 11995-065) supplemented with 5% heat-inactivated fetal bovine serum, FBS; Gibco, 16000-044) and 50 μg/ml penicillin-streptomycin (Gibco, 15140-122) were added to each well of a 6-well plate and incubated overnight at 37° C. in a CO2 incubator. The compound of Example 29 (5 μM) and rapamycin (10 μM) were respectively treated and then incubated at 37° C. in a CO2 incubator for 24 hours. Three wells per each group were subject to electron microscope block formation and then pre-fixation, post-fixation, dehydration, substitution, and embedding were carried out according to a flat-embedding method. After ultra-thin sections having a thickness of 70 nm were prepared, heavy metal staining (uranyl acetate, lead citrate) was carried out on the each section, which was photographed through a mosaic imaging technique for imaging the entire cells. In addition, the results obtained by measuring the numbers of the total autophagies (autophagic vesicles), autophagosomes, and autolysosomes per cell according to the treatment groups are shown in Table 3 below. In Table 3 below, the control means the untreated control.
# [7] = 24 hours, basal respiration of untreated control = 100%
# [8] = 0 week (Day 0, after 4 weeks DMN, before administration)
# [9] = 1 week, 25 mg/kg oral once a day after 4 weeks DMN
# [10] = 2 weeks, 25 mg/kg oral once a day after 4 weeks DMN
# [11] = 3 weeks, 25 mg/kg oral once a day after 4 weeks DMN
# [12] = 4 weeks, 25 mg/kg oral once a day after 4 weeks DMN
smiles,measurement,setting,value
"Cc1nc(-c2ccc(OCC(C)C)c(C#N)c2)sc1C(=O)NCC1(N(C)C)CCOCC1 [Example 10, N-((4-(dimethylamino)tetrahydro-2H-pyran-4-yl)methyl)-2-(3-cyano-4-isobutoxyphenyl)-4-methylthiazole-5-carboxamide hydrochloride]",viability at 5 µM,"N2a cells [1]; 5 μM, 20 μM beta amyloid, 72 hours, untreated control = 100%",68.9%
same,Inhibition of cytotoxicity caused by beta amyloid treatment (in words),N2a cells [1],significantly inhibit the cytotoxicity caused by beta amyloid treatment
same,Cyto-ID fluorescence value (relative intensity),[2],1.813
same,Autophagic vesicle formation compared to rapamycin (in words),[2],significantly increase autophagic vesicle formation
same,viability at 0.5 µM,"[3]; 500 nM, 20 μM beta amyloid, 72 hours, untreated control = 100%",52.2%
same,Recovery of mitochondrial damage by rotenone treatment (in words),N2a cells [4],recovers the mitochondrial damage by rotenone treatment in a statistically significant level
same,Mitochondrial respiration (%): ATP production,N2a cells [4]; [7],31.65%
same,Mitochondrial respiration (%): Basal,N2a cells [4]; [7],51.69%
same,Mitochondrial respiration (%): Maximal,N2a cells [4]; [7],62.28%
same,Mitochondrial respiration (%): Spare,N2a cells [4]; [7],16.33%
"CCN(CC)CCOc1ccc(-c2nc(C)c(C(=O)NCC3(N(C)C)CCOCC3)s2)cc1C#N.Cl.Cl [Example 29, N-((4-(dimethylamino)tetrahydro-2H-pyran-4-yl)methyl)-2-(4-(2-diethylamino)ethoxy-3-cyanophenyl)-4-methylthiazole-5-carboxamide hydrochloride]",viability at 5 µM,N2a cells [1]; 72 h,68.5%
same,Inhibition of cytotoxicity caused by beta amyloid treatment (in words),N2a cells [1],significantly inhibit the cytotoxicity caused by beta amyloid treatment
same,Cyto-ID fluorescence value (relative intensity),[2],2.171
same,Autophagic vesicle formation compared to rapamycin (in words),[2],significantly increase autophagic vesicle formation
same,ALT values (average value),[5]; [8],219.29 U/L
same,AST values (average value),[5]; [8],376.67 U/L
same,ALT values (average value),[5]; [9],99.31 U/L
same,AST values (average value),[5]; [9],164.60 U/L
same,ALT values (average value),[5]; [10],66.57 U/L
same,AST values (average value),[5]; [10],143.87 U/L
same,ALT values (average value),[5]; [11],53.03 U/L
same,AST values (average value),[5]; [11],127.65 U/L
same,ALT values (average value),[5]; [12],52.97 U/L
same,AST values (average value),[5]; [12],123.33 U/L
same,Numbers of the autophagy per cell: Autolysosome,"N2a cells [6]; 5 μM, 24 hours",14.9
same,Numbers of the autophagy per cell: Autophagic vesicles,"N2a cells [6]; 5 μM, 24 hours",22.3
same,Numbers of the autophagy per cell: Autophagosome,"N2a cells [6]; 5 μM, 24 hours",6.9
same,Autophagic vesicle and autolysosome formation compared to rapamycin (in words),N2a cells [6]; at ½ concentration of rapamycin (5 μM vs 10 μM),"significantly increase autophagic vesicle formation, especially autolysosome formation"
same,viability at 0.5 µM,[3]; 72 h,53.3%
